Laboratory results reported in DBAASP.
In brackets after ≈: the same amount, converted by molar mass.

What was measured:
Experiment in all cases: ≥ marks a high value that may be exact or a test limit, other limits are often not marked, values filed in µg/mL are converted to µM
[1] = test system: Staphylococcus aureus ATCC 29213
[2] = test system: Candida albicans ATCC 10231
[3] = test system: Pseudomonas aeruginosa ATCC 27853
[4] = test system: Escherichia coli ATCC 25922
[5] = test system: Aspergillus brasiliensis ATCC 16404
[6] = test system: Enterococcus faecalis ATCC 29212
[7] = test system: Streptococcus sanguinis
[8] = test system: Staphylococcus aureus
[9] = test system: Pseudomonas aeruginosa Z61
[10] = test system: Candida albicans C627
[11] = test system: Escherichia coli CGSC 4908
[12] = test system: Pseudomonas aeruginosa K799
[13] = test system: Escherichia coli UB1005
[14] = test system: Salmonella enterica serovar typhimurium MS7953s
[15] = test system: Aeromonas salmonicida 99-1
[16] = test system: Staphylococcus aureus C623
[17] = test system: Staphylococcus epidermidis C621
[18] = test system: Aeromonas salmonicida 97-4
[19] = test system: Escherichia coli DC2
[20] = test system: Salmonella enterica subsp. enterica serovar Typhimurium ATCC 14028s
[21] = test system: Bacillus subtilis VKM B-501
[22] = test system: Escherichia coli C600
[23] = test system: Staphylococcus aureus 209P
[24] = test system: Acinetobacter baumannii ATCC 19606
[25] = test system: Escherichia coli BW25113 ΔsbmA
[26] = test system: Klebsiella pneumoniae ATCC 700603
[27] = test system: Salmonella enterica subsp. enterica serovar Typhimurium ATCC 14028
[28] = test system: Escherichia coli BW25113
[29] = test system: Staphylococcus aureus ATCC 25923
[30] = test system: Pseudomonas aeruginosa
[31] = test system: Staphylococcus pseudintermedius
[32] = test system: Acinetobacter baumannii CCARM 12035
[33] = test system: Staphylococcus aureus KCTC 1621
[34] = test system: Escherichia coli KCTC 1682
[35] = test system: Escherichia coli CCARM 1229
[36] = test system: Acinetobacter baumannii KCTC 2508
[37] = test system: Staphylococcus aureus CCARM 3126
[38] = test system: Pseudomonas aeruginosa CCARM 2002
[39] = test system: Staphylococcus epidermidis KCTC 1917
[40] = test system: Pseudomonas aeruginosa KCTC 2004
[41] = test system: Salmonella typhimurium KCTC 1926
[42] = test system: Bacillus subtilis KCTC 3068
[43] = test system: Salmonella typhimurium CCARM 8007

`CC[C@H](C)[C@H](NC(=O)[C@H](CCCCN)NC(=O)CNC(=O)[C@@H]1CCCN1C(=O)[C@H](Cc1cnc[nH]1)NC(=O)[C@H](CC(C)C)NC(=O)[C@H](CC(C)C)NC(=O)[C@H](Cc1ccc(O)cc1)NC(=O)[C@H](CO)NC(=O)CNC(=O)[C@H](Cc1ccc(O)cc1)NC(=O)[C@H](CC(C)C)NC(=O)[C@H](CO)NC(=O)[C@@H](N)CS)C(=O)N[C@@H](CO)C(=O)N[C@@H](Cc1ccc(O)cc1)C(=O)N[C@@H](CO)C(=O)N[C@@H](CC(C)C)C(=O)N[C@@H](Cc1cnc[nH]1)C(=O)N[C@@H](CS)C(=O)N[C@@H](CO)C(=O)N[C@@H](CCCN=C(N)N)C(=O)O` [CSLYGSYLLHPGKISYSLHCSR] gave an MIC [1] of 32 µM (≈ 79.5 µg/mL), an MIC [2] of 32 µM (≈ 79.5 µg/mL) and an MIC [3] of 64 µM (≈ 159 µg/mL). For the same compound, the MIC [4] was 16 µM (≈ 39.8 µg/mL), the MIC [5] was at least 64 µM and the MIC [6] was 16 µM (≈ 39.8 µg/mL).

With `CC[C@H](C)[C@H](NC(=O)[C@H](Cc1ccccc1)NC(=O)[C@@H](N)Cc1ccccc1)C(=O)N[C@@H](Cc1ccccc1)C(=O)N[C@@H](Cc1ccccc1)C(=O)N[C@@H](Cc1ccccc1)C(N)=O` [FFIFFF] the MIC [7] was at least 32.6 µM and the MIC [8] was 14.8 µM (≈ 12.8 µg/mL).

For `CC[C@H](C)[C@H](NC(=O)CNC(=O)[C@H](Cc1cnc[nH]1)NC(=O)[C@H](CC(C)C)NC(=O)CNC(=O)[C@H](CC(C)C)NC(=O)[C@H](CCCCN)NC(=O)[C@H](Cc1ccccc1)NC(=O)[C@H](CC(C)C)NC(=O)[C@H](CCCCN)NC(=O)CNC(=O)[C@H](Cc1c[nH]c2ccccc12)NC(=O)[C@H](Cc1ccccc1)NC(=O)CN)C(=O)NCC(=O)N[C@@H](CC(C)C)C(=O)N[C@@H](CC(C)C)C(=O)N[C@@H](Cc1cnc[nH]1)C(=O)N[C@@H](CC(C)C)C(=O)N[C@@H](Cc1cnc[nH]1)C(=O)N[C@@H](CC(C)C)C(C)=O` [GFWGKLFKLGLHGIGLLHLHL], the MIC [9] was 1.7 µM (≈ 4 µg/mL), the MIC [10] was 6.79 µM (≈ 16 µg/mL) and the MIC [11] was 3.39 µM (≈ 7.99 µg/mL). It also gave an MIC [12] of 3.39 µM (≈ 7.99 µg/mL), an MIC [13] of 3.39 µM (≈ 7.99 µg/mL) and an MIC [14] of 1.7 µM (≈ 4 µg/mL). The MIC [15] was 3.39 µM (≈ 7.99 µg/mL), the MIC [16] was 1.7 µM (≈ 4 µg/mL) and the MIC [17] was 1.7 µM (≈ 4 µg/mL). For the same compound, the MIC [18] was 6.79 µM (≈ 16 µg/mL), the MIC [19] was 3.39 µM (≈ 7.99 µg/mL) and the MIC [20] was 6.79 µM (≈ 16 µg/mL).

`CC[C@H](C)[C@H](NC(=O)[C@H](C)NC(=O)[C@H](CCCCN)NC(=O)[C@H](CCCN=C(N)N)NC(=O)CNC(=O)[C@H](Cc1ccccc1)NC(=O)[C@H](CCCCN)NC(=O)[C@H](CCCCN)NC(=O)[C@@H](NC(=O)[C@H](CC(C)C)NC(=O)[C@H](CCCCN)NC(=O)CN)[C@@H](C)CC)C(=O)N[C@@H](CO)C(=O)N[C@@H](Cc1ccc(O)cc1)C(=O)N[C@@H](C)C(=O)N[C@H](C(=O)N[C@@H](CCCCN)C(=O)N[C@@H](CCCCN)C(=O)N[C@@H](C)C(=O)N[C@@H](CCCN=C(N)N)C(=O)NCC(=O)N[C@@H](CCCCN)C(=O)N[C@@H](Cc1cnc[nH]1)C(=O)O)C(C)C` [GKLIKKFGRKAISYAVKKARGKH] showed an MIC [21] of 0.7 µM (≈ 1.81 µg/mL), an MIC [22] of 6 µM (≈ 15.5 µg/mL) and an MIC [23] of at least 36 µM.

For `CC[C@H](C)[C@H](NC(=O)[C@@H]1CCCN1C(=O)[C@@H]1CCCN1C(=O)[C@H](CCCN=C(N)N)NC(=O)[C@H](Cc1ccccc1)NC(=O)[C@@H]1CCCN1C(=O)[C@@H]1CCCN1C(=O)[C@H](Cc1ccc(O)cc1)NC(=O)[C@H](Cc1ccccc1)NC(=O)[C@@H]1CCCN1C(=O)[C@@H]1CCCN1C(=O)[C@H](CCCN=C(N)N)NC(=O)[C@@H](NC(=O)[C@@H]1CCCN1C(=O)[C@@H]1CCCN1C(=O)[C@H](CCCN=C(N)N)NC(=O)[C@H](CCCN=C(N)N)NC(=O)[C@@H](NC(=O)[C@@H]1CCCN1C(=O)[C@@H]1CCCN1C(=O)[C@H](CCCN=C(N)N)NC(=O)[C@H](Cc1ccccc1)NC(=O)[C@@H](N)CCCN=C(N)N)[C@@H](C)CC)[C@@H](C)CC)C(=O)O` [RFRPPIRRPPIRPPFYPPFRPPI], the MIC [24] was 1 µM (≈ 2.87 µg/mL), the MIC [25] was at least 32 µM and the MIC [3] was 32 µM (≈ 91.9 µg/mL). The MIC [26] was 32 µM (≈ 91.9 µg/mL), the MIC [4] was 2 µM (≈ 5.74 µg/mL) and the MIC [27] was 4 µM (≈ 11.5 µg/mL). The MIC [28] was 2 µM (≈ 5.74 µg/mL) and the MIC [29] was over 64 µM.

Compound `CC(=O)N[C@@H](CCCN=C(N)N)C(=O)N[C@@H](CCCCN)C(=O)N[C@@H](Cc1ccccc1)C(=O)N[C@@H](CC(C)C)C(=O)N[C@@H](CCCN=C(N)N)C(=O)N[C@@H](CCCN=C(N)N)C(=O)N[C@@H](CCCN=C(N)N)C(=O)NCC(=O)N[C@@H](CCC(=O)O)C(=O)N[C@H](C(=O)N[C@@H](C)C(=O)N[C@@H](Cc1cnc[nH]1)C(=O)N[C@@H](Cc1ccccc1)C(=O)N[C@@H](CO)C(=O)N[C@@H](CCC(N)=O)C(=O)N[C@@H](CCCCN)C(=O)N[C@@H](CO)C(=O)N[C@@H](CC(C)C)C(=O)NCC(=O)N[C@@H](CC(C)C)C(=O)N[C@@H](Cc1ccc(O)cc1)C(=O)N[C@@H](CS)C(=O)N[C@@H](Cc1c[nH]c2ccccc12)C(=O)N[C@@H](Cc1c[nH]c2ccccc12)C(=O)N[C@@H](Cc1c[nH]c2ccccc12)C(N)=O)C(C)C` [RKFLRRRGEVAHFSQKSLGLYCWWW] has an MIC [1] of 19.9 µM (≈ 64.8 µg/mL), an MIC [30] of 39.9 µM (≈ 130 µg/mL) and an MIC [31] of at least 39.9 µM. It also gave an MIC [3] of 19.9 µM (≈ 64.8 µg/mL).

Compound `CC[C@H](C)[C@H](NC(=O)[C@H](CCCCN)NC(=O)[C@H](Cc1c[nH]c2ccccc12)NC(=O)[C@@H](N)CCCN=C(N)N)C(=O)N[C@@H](Cc1ccccc1)C(=O)N[C@@H](CCCCN)C(=O)N[C@@H](CCCCN)C(=O)N[C@H](C(=O)N[C@H](C(=O)N[C@@H](CCCCN)C(=O)N[C@@H](CCCCN)C(=O)N[C@@H](Cc1c[nH]c2ccccc12)C(N)=O)C(C)C)C(C)C` [RWKIFKKVVKKW] has an MIC [32] of 4 µM (≈ 6.58 µg/mL), an MIC [33] of 4 µM (≈ 6.58 µg/mL) and an MIC [34] of 4 µM (≈ 6.58 µg/mL). It also gave an MIC [35] of 8 µM (≈ 13.2 µg/mL), an MIC [36] of 4 µM (≈ 6.58 µg/mL) and an MIC [37] of 8 µM (≈ 13.2 µg/mL). The MIC [38] was 8 µM (≈ 13.2 µg/mL), the MIC [39] was 8 µM (≈ 13.2 µg/mL) and the MIC [40] was 4 µM (≈ 6.58 µg/mL). The MIC [41] was 8 µM (≈ 13.2 µg/mL), the MIC [42] was 8 µM (≈ 13.2 µg/mL) and the MIC [43] was 8 µM (≈ 13.2 µg/mL).
